Consider three molecules from PMC8199471, “Identification, Characterization and Antihypertensive Effect In Vivo of a Novel ACE-Inhibitory Heptapeptide from Defatted Areca Nut Kernel Globulin Hydrolysates” (Molecules, 2021).

Ends that are not written are not given here.

The subject of assay [1] is spontaneously hypertensive rats (SHRs). Nature of the assay: Antihypertensive effect in vivo, tail-cuff SBP and DBP. Particulars: positive control, oral 14 mg/kg/body weight once daily, throughout the experiment period. On the set-up: species or system rat. As to the method:
The antihypertensive effect of the synthesized peptide was determined as per the same procedure described by Zheng et al.. Briefly, spontaneously hypertensive rats (SHRs, male, 12 weeks age) were purchased from VRL Animal Technology Co., Ltd. (Beijing, China). The SHRs were randomly divided into positive control group, low-, middle- and high-dosage groups, and negative control group. Each group contains four rats. […] In addition, SHRs in the negative group were orally given saline (0.9%). After an adaptation period of one week, the weight, systolic blood pressure (SBP) and diastolic blood pressure (DBP) of SHRs were measured using the tail-cuff method once week. Moreover, the animal experiment was conducted in conformity with institutional guidelines for the care and use of laboratory animals in Shanxi University of Chinese Medicine, Taiyuan, China. All the rats received human care conforming to the National Institutes of Health Guide for care and Use of Laboratory Animals (Publication No. 85-23, revised 1985).

Another assay deals with T1, ACE (from rabbit lung) (Oryctolagus cuniculus, UniProt P12822).
T1 construct: ACE (from rabbit lung); purchased Sigma Co., St. Louis, MO, USA; host or cells: rabbit lung (tissue-derived)
T1 sequence (P12822 34-1310): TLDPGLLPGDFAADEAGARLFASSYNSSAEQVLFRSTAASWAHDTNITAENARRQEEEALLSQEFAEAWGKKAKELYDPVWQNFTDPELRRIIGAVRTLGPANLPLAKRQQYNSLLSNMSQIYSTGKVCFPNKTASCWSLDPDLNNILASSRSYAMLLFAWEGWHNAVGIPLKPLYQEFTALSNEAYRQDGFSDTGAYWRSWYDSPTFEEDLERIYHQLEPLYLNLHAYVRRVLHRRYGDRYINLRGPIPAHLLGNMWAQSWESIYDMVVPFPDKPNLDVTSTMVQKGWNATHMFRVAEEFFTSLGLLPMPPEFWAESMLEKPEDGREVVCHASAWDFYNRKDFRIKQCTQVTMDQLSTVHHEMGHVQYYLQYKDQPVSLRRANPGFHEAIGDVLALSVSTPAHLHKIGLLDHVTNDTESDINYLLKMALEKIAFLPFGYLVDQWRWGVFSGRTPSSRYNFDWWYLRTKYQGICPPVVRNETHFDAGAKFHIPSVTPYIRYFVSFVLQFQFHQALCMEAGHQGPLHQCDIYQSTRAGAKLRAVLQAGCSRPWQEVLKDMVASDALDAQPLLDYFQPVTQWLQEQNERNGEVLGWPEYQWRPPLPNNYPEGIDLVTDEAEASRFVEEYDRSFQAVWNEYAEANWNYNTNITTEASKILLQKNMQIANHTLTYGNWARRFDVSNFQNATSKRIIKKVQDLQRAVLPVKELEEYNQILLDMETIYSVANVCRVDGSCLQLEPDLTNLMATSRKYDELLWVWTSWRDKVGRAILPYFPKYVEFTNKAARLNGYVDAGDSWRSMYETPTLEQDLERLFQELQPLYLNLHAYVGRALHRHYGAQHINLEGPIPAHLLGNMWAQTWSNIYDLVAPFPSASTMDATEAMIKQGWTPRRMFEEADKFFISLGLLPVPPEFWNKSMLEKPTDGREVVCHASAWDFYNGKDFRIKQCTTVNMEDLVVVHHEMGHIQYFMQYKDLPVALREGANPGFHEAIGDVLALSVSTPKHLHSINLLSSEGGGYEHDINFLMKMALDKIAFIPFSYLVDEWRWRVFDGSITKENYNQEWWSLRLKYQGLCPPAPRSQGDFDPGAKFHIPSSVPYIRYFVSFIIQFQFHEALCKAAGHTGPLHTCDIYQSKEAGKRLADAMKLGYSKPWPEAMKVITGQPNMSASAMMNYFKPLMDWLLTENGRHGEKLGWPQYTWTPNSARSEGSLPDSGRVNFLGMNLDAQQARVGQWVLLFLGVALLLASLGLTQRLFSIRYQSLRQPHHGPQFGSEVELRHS
Description: ACE-inhibitory activity assay (HHL substrate, method of Jimsheena and Gowda). Particulars: synthesized peptide; calculated from regression y = 12.464 ln(x) − 28.656. It counts as biochemical. From the text: Areca nut kernel was purchased from Sanpo Palm Ground Part Co., Haikou, China. Cellulase (from Trichoderma viride G, 3.0 × 10^5 U), trypsin (5 × 10^[…]) and alcalase (1 × 10^[…]) were purchased from Tian Keji Co., Ltd. (Tianjin, China). EA.hy926 cells were purchased from the Type Culture Collection of the Chinese Academy of Sciences, Shanghai, China. Captopril, ACE (from rabbit lung) and N-Hippuryl-His-Leu hydrate (HHL) were purchased from Sigma Co., St. Louis, MO, USA. Endothelin-1 Elisa kit was from Pensui Biotech Co. (Wuhan, China). DMEM (Dulbecco's modified Eagle's medium) were obtained from JiQing Biotech. Co., Ltd. (Nanjing, China). Other chemicals and reagents were of analytical grade and purchased from Peisu Co., Ltd. (Xi'an, China). ACE-inhibitory activity was determined using the same procedure as described by Jimsheena and Gowda. The concentration of the sample required for inhibiting 50% of ACE activity was defined as IC50 value. The ACE inhibition kinetics of peptides identified in ANKGH was analyzed by Lineweaver-Burk plots of 1/V versus 1/HHL in the presence of the inhibitor [17]. The concentrations of HHL (N-hippuryl-His-Leu hydrate) used were 0.76 to 7.60 mM.

A further assay deals with ACE. On the set-up: method as in 2 sources, one per row (each row's own in cited_ref): ref 18 = [18]; PMID 29606478; doi:10.1016/j.foodchem.2018.02.107; 18. Tu M. Wang C. Chen C. Zhang R. Liu H. Lu W. Jiang L. Du M. Identification of a novel ACE-inhibitory peptide from casein and evaluation of the inhibitory mechanisms Food Chem. 2018 256 98 104 10.10 ||| ref 20 = [20]; PMID 30229250; doi:10.1039/C8FO00569A; 20. Ling Y. Sun L.P. Zhuang Y.L. Preparation and identification of novel inhibitory angiotensin-I-converting enzyme peptides from tilapia skin gelatin hydrolysates: Inhibition kinetics and molecular d. Particulars: peptide identified in casein protein; cited from earlier work.

In the case of `C[C@H](CS)C(=O)N1CCC[C@H]1C(=O)O` [Captopril], in assay [1], the “DBP of SHRs among all test groups” value is reported as “lowest” and the “SBP of SHRs among all test groups” value was “lowest”. In general, IC50 refers to the concentration needed to halve the response being measured. With “APKIEEV [APKIEEV, Ala–Pro–Lys–Ile–Glu–Glu–Val]”, at ACE (from rabbit lung), the IC50 was 550 µM.

For the molecule NMAINPSKENLCSTFCK, the IC50 with ACE was 129 µM.
